# Laboratory results: patent publication US9302999B2, “Substituted triazoles as herbicides” (E. I. DU PONT DE NEMOURS AND COMPANY, priority 2012, dated 2016)
# Experiments:
# Format in all cases: in vivo
# [1] = system: barnyardgrass (Echinochloa crus-galli); test: Test B flooded paddy: barnyardgrass; settings: Flood; 250 g ai/ha; applied to paddy water at 2-leaf stage; visually evaluated after 13 to 15 days
# Procedure, shortened: (§1)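 Response scored visually, 0–100 relative to controls, 13–15 days after the compound was applied into paddy water; plants were at the 2-leaf stage in pots kept flooded to 3 cm.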
# [2] = system: chickweed (common chickweed, Stellaria media); test: Test D pre-/postemergence: chickweed
# Procedure, shortened: (§2)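 Visual 0–100 rating versus untreated controls (0 no effect, 100 complete control), taken 14 to 21 days after treatment in a controlled growth environment. Preemergence: silt loam soil. Postemergence: peat moss/vermiculite medium, plants 2 to 18 cm, 1- to 4-leaf stage. Solvent mixture with surfactant.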
# [3] = system: Russian thistle (Salsola iberica); test: Test D pre-/postemergence: Russian thistle; settings: Postemergence; for Plant response rating, Russian Thistle: scale 0 to 100
# Procedure, shortened: as §2
# [4] = system: bluegrass (annual bluegrass, Poa annua); test: Test D pre-/postemergence: bluegrass
# Procedure, shortened: as §2
# [5] = system: blackgrass (Alopecurus myosuroides); test: Test D pre-/postemergence: blackgrass
# Procedure, shortened: as §2
# [6] = system: ryegrass, Italian (Italian ryegrass, Lolium multiflorum); test: Test D pre-/postemergence: ryegrass, Italian
# Procedure, shortened: as §2
# [7] = system: bermudagrass (Cynodon dactylon); test: Test C pre-/postemergence: bermudagrass
# Procedure, shortened: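 Preemergence on seeds in loam/sand, postemergence on 2–18 cm (1–4-leaf) plants in peat-based medium; compounds in non-phytotoxic solvent with surfactant. After 13–15 days in greenhouse, visual rating versus controls, 0 (no effect) to 100 (complete control).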
# rice (Oryza sativa) = test: Test B flooded paddy: rice; settings: Flood; 250 g ai/ha; applied to paddy water at 2-leaf stage; visually evaluated after 13 to 15 days
# Procedure, shortened: as §1
# [8] = system: deadnettle (henbit deadnettle, Lamium amplexicaule); test: Test D pre-/postemergence: deadnettle
# Procedure, shortened: as §2
# [9] = Postemergence, 31 g ai/ha, scale 0 to 100 (0 no effect, 100 complete control)
# [10] = Postemergence, 62 g ai/ha, scale 0 to 100 (0 no effect, 100 complete control)
# [11] = Postemergence, 125 g ai/ha, scale 0 to 100, 0 no effect, 100 complete control
# [12] = Postemergence, 250 g ai/ha, scale 0 to 100 (0 no effect, 100 complete control)
# [13] = Postemergence, 16 g ai/ha, scale 0 to 100
# [14] = 62 g ai/ha, scale 0 to 100 (0 no effect, 100 complete control)
# [15] = 125 g ai/ha, scale 0 to 100, 0 no effect, 100 complete control
# [16] = Postemergence, 250 g ai/ha, scale 0 to 100
# [17] = Postemergence, 8 g ai/ha, scale 0 to 100
# [18] = 31 g ai/ha, scale 0 to 100 (0 no effect, 100 complete control)
# [19] = Preemergence, 31 g ai/ha, scale of 0 to 100, 0 is no effect, 100 is complete control
# [20] = Preemergence, 62 g ai/ha, scale of 0 to 100, 0 is no effect, 100 is complete control
# [21] = Preemergence, 125 g ai/ha, scale 0 to 100, 0 no effect, 100 complete control
# [22] = Preemergence, 250 g ai/ha, scale 0 to 100, 0 no effect, 100 complete control
# [23] = Preemergence, 16 g ai/ha, scale 0 to 100 (0 no effect, 100 complete control)
# [24] = Preemergence, 31 g ai/ha, scale 0 to 100 (0 no effect, 100 complete control)
# [25] = Preemergence, 62 g ai/ha, scale 0 to 100
# [26] = Preemergence, 125 g ai/ha, scale 0 to 100
smiles,measurement,setting,value
Cc1nn(-c2ccnc(C(F)(F)F)c2)nc1Cc1ccnc(C(F)(F)F)c1 [Compound 137],"Plant response rating, Barnyardgrass (0 to 100 scale, 0 is no effect, 100 is complete control)",[1],45
same,Plant response rating: Chickweed,[2]; [9],50
same,Plant response rating: Chickweed,[2]; [10],80
same,Plant response rating: Chickweed,[2]; [11],85
same,Plant response rating: Chickweed,[2]; [12],90
same,"Plant response rating, Chickweed",[2]; [13],40
same,Plant response rating: Russian Thistle,[3]; [14],85
same,Plant response rating: Russian Thistle,[3]; [15],85
same,Plant response rating: Russian Thistle,"[3]; 250 g ai/ha, scale 0 to 100 (0 no effect, 100 complete control)",90
same,"Plant response rating, Russian Thistle",[3]; 16 g ai/ha,30
same,Plant response rating: Bluegrass,[4]; [9],20
same,Plant response rating: Bluegrass,[4]; [10],40
same,Plant response rating: Bluegrass,[4]; [11],80
same,Plant response rating: Bluegrass,[4]; [12],90
same,"Plant response rating, Bluegrass",[4]; [13],5
same,Plant response rating: Blackgrass,[5]; [9],30
same,Plant response rating: Blackgrass,[5]; [10],50
same,Plant response rating: Blackgrass,[5]; [11],70
same,Plant response rating: Blackgrass,[5]; [12],80
same,"Plant response rating, Blackgrass",[5]; [13],10
same,"Plant response rating: Ryegrass, Italian",[6]; [9],10
same,"Plant response rating: Ryegrass, Italian",[6]; [10],25
same,"Plant response rating: Ryegrass, Italian",[6]; [11],35
same,"Plant response rating: Ryegrass, Italian",[6]; [12],40
same,"Plant response rating, Ryegrass, Italian",[6]; [13],0
same,"Plant response rating, Bermudagrass",[7]; [9],30
same,"Plant response rating, Bermudagrass",[7]; [10],30
same,"Plant response rating, Bermudagrass",[7]; [16],45
same,"Plant response rating, Rice (0 to 100 scale, 0 is no effect, 100 is complete control)",rice (Oryza sativa),40
same,Plant response rating: Deadnettle,[8]; [9],40
same,Plant response rating: Deadnettle,[8]; [10],70
same,Plant response rating: Deadnettle,[8]; [11],80
same,Plant response rating: Deadnettle,[8]; [12],85
same,"Plant response rating, Deadnettle",[8]; [13],20
Cc1nn(-c2ccc(F)c(F)c2)nc1Oc1ccnc(C(F)(F)F)c1 [Compound 145],"Plant response rating, Barnyardgrass (0 to 100 scale, 0 is no effect, 100 is complete control)",[1],90
same,Plant response rating: Chickweed,[2]; [9],60
same,Plant response rating: Chickweed,[2]; [10],80
same,Plant response rating: Chickweed,[2]; [11],90
same,"Plant response rating, Chickweed",[2]; [17],40
same,"Plant response rating, Chickweed",[2]; [13],75
same,Plant response rating: Russian Thistle,[3]; [18],95
same,Plant response rating: Russian Thistle,[3]; [14],98
same,Plant response rating: Russian Thistle,[3]; [15],100
same,"Plant response rating, Russian Thistle",[3]; 8 g ai/ha,10
same,"Plant response rating, Russian Thistle",[3]; 16 g ai/ha,40
same,Plant response rating: Bluegrass,[4]; [9],20
same,Plant response rating: Bluegrass,[4]; [10],25
same,Plant response rating: Bluegrass,[4]; [11],40
same,"Plant response rating, Bluegrass",[4]; [17],0
same,"Plant response rating, Bluegrass",[4]; [13],0
same,Plant response rating: Blackgrass,[5]; [9],20
same,Plant response rating: Blackgrass,[5]; [10],25
same,Plant response rating: Blackgrass,[5]; [11],30
same,"Plant response rating, Blackgrass",[5]; [17],5
same,"Plant response rating, Blackgrass",[5]; [13],20
same,"Plant response rating: Ryegrass, Italian",[6]; [9],10
same,"Plant response rating: Ryegrass, Italian",[6]; [10],15
same,"Plant response rating: Ryegrass, Italian",[6]; [11],30
same,"Plant response rating, Ryegrass, Italian",[6]; [17],0
same,"Plant response rating, Ryegrass, Italian",[6]; [13],0
same,"Plant response rating, Bermudagrass",[7]; [9],10
same,"Plant response rating, Bermudagrass",[7]; [10],40
same,"Plant response rating, Bermudagrass",[7]; [11],75
same,"Plant response rating, Bermudagrass",[7]; [16],90
same,"Plant response rating, Bermudagrass",[7]; [19],98
same,"Plant response rating, Bermudagrass",[7]; [20],98
same,"Plant response rating, Bermudagrass",[7]; [21],98
same,"Plant response rating, Bermudagrass",[7]; [22],98
same,"Plant response rating, Rice (0 to 100 scale, 0 is no effect, 100 is complete control)",rice (Oryza sativa),80
same,Plant response rating: Deadnettle,[8]; [9],70
same,Plant response rating: Deadnettle,[8]; [10],90
same,Plant response rating: Deadnettle,[8]; [11],100
same,"Plant response rating, Deadnettle",[8]; [17],0
same,"Plant response rating, Deadnettle",[8]; [13],50
Cc1nn(-c2ccc(F)c(C(F)(F)F)c2)nc1Oc1ccnc(C(F)(F)F)c1 [Compound 147],"Plant response rating, Barnyardgrass (0 to 100 scale, 0 is no effect, 100 is complete control)",[1],55
same,Plant response rating: Chickweed,[2]; [9],70
same,Plant response rating: Chickweed,[2]; [10],80
same,Plant response rating: Chickweed,[2]; [11],80
same,"Plant response rating, Chickweed",[2]; [13],60
same,"Plant response rating, Chickweed",[2]; [23],35
same,"Plant response rating, Chickweed",[2]; [24],85
same,"Plant response rating, Chickweed",[2]; [25],70
same,"Plant response rating, Chickweed",[2]; [26],100
same,Plant response rating: Russian Thistle,[3]; [18],85
same,Plant response rating: Russian Thistle,[3]; [14],80
same,Plant response rating: Russian Thistle,[3]; [15],80
same,"Plant response rating, Russian Thistle",[3]; 16 g ai/ha,45
same,Plant response rating: Bluegrass,[4]; [9],10
same,Plant response rating: Bluegrass,[4]; [10],55
same,Plant response rating: Bluegrass,[4]; [11],70
same,"Plant response rating, Bluegrass",[4]; [13],5
same,"Plant response rating, Bluegrass",[4]; [23],0
same,"Plant response rating, Bluegrass",[4]; [24],15
same,"Plant response rating, Bluegrass",[4]; [25],20
same,"Plant response rating, Bluegrass",[4]; [26],35
same,Plant response rating: Blackgrass,[5]; [9],25
same,Plant response rating: Blackgrass,[5]; [10],30
same,Plant response rating: Blackgrass,[5]; [11],60
same,"Plant response rating, Blackgrass",[5]; [13],15
same,"Plant response rating, Blackgrass",[5]; [23],0
same,"Plant response rating, Blackgrass",[5]; [24],0
same,"Plant response rating, Blackgrass",[5]; [25],30
same,"Plant response rating, Blackgrass",[5]; [26],40
same,"Plant response rating: Ryegrass, Italian",[6]; [9],10
same,"Plant response rating: Ryegrass, Italian",[6]; [10],15
same,"Plant response rating: Ryegrass, Italian",[6]; [11],35
same,"Plant response rating, Ryegrass, Italian",[6]; [13],5
same,"Plant response rating, Ryegrass, Italian",[6]; [23],0
same,"Plant response rating, Ryegrass, Italian",[6]; [24],5
same,"Plant response rating, Ryegrass, Italian",[6]; [25],15
same,"Plant response rating, Ryegrass, Italian",[6]; [26],30
same,"Plant response rating, Bermudagrass",[7]; [19],100
same,"Plant response rating, Bermudagrass",[7]; [20],100
same,"Plant response rating, Bermudagrass",[7]; [21],100
same,"Plant response rating, Bermudagrass",[7]; [22],100
same,"Plant response rating, Rice (0 to 100 scale, 0 is no effect, 100 is complete control)",rice (Oryza sativa),50
same,Plant response rating: Deadnettle,[8]; [9],95
same,Plant response rating: Deadnettle,[8]; [10],90
same,Plant response rating: Deadnettle,[8]; [11],100
same,"Plant response rating, Deadnettle",[8]; [13],65
same,"Plant response rating, Deadnettle",[8]; [23],5
same,"Plant response rating, Deadnettle",[8]; [24],10
same,"Plant response rating, Deadnettle",[8]; [25],100
same,"Plant response rating, Deadnettle",[8]; [26],100
